What was measured:
[1] = target: T1, Protein farnesyltransferase (Rattus norvegicus) (UniProt Q04631+Q02293); test: Percent phenotypic reversion of H-ras transformed Rat-1 cells at 1 uM; type: functional, cell-based
[2] = target: Protein farnesyltransferase (Homo sapiens, UniProt P49354+P49356); test: Inhibition of purified recombinant human farnesyltransferase (FT)
NIH3T3 = test: cells; conditions: Mus musculus
Description: Inhibition of anchorage independent growth of H-ras transformed NIH3T3 cells in Soft Agar

in vivo [3] = conditions: rat, po, 50 mg/kg
Description: Oral bioavailability observed in rats at an oral dose of 50 mg/kg

[4] = Maximum concentration observed in rats at an oral dose of 50 mg/kg; conditions: rat, in vivo
[5] = Half-life of compound in rats following intravenous dose of 50 mg/kg; conditions: rat, in vivo
[6] = Clearance in rats following intravenous dose of 50 mg/kg; conditions: rat, in vivo
in vivo [7] = conditions: rat, iv, 50 mg/kg
Description: Volume of distribution (Vss) in rats following intravenous dose of 50 mg/kg

[8] = target: T1, Protein farnesyltransferase (Rattus norvegicus); test: Percent phenotypic reversion of H-ras transformed Rat-1 cells at 10 uM; type: functional, cell-based
Mus musculus [9] = test: In vivo antitumor activity (log cell kill, LCK) by subcutaneous implantation of HCT116 tumors followed by oral administration at an optimal dose of 600 mg/kg in mice
Mus musculus [10] = test: In vivo antitumor activity (log cell kill, LCK) by subcutaneous implantation of HCT116 tumors followed by oral administration at an optimal dose of 600 mg/kg in expt. 4; type: functional
Mus musculus [11] = test: In vivo antitumor activity (log cell kill, LCK) by subcutaneous implantation of HCT116 tumors followed by oral administration at an optimal dose of 700 mg/kg in expt. 1; type: functional
Mus musculus [12] = test: In vivo antitumor activity (log cell kill, LCK) by subcutaneous implantation of HCT116 tumors followed by oral administration at an optimal dose of 600 mg/kg in expt. 2; type: functional
[13] = target: T1, Protein farnesyltransferase (Rattus norvegicus); test: Percent phenotypic reversion of H-ras transformed Rat-1 cells at 5 uM; type: functional, cell-based
Mus musculus [14] = species: Mus musculus; test: Increase in lifespan reflected by relative median survival time of treated versus control groups expressed as maximum % T/C; type: functional
Mus musculus [15] = test: In vivo antitumor activity (log cell kill, LCK) by subcutaneous implantation of HCT116 tumors followed by oral administration at an optimal dose of 600 mg/kg in expt. 5; type: functional
Mus musculus [16] = test: In vivo antitumor activity (log cell kill, LCK) by subcutaneous implantation of HCT116 tumors followed by oral administration at an optimal dose of 600 mg/kg in expt. 3; type: functional
[17] = Half-life of compound in Balb/c mice following an oral dose of 90 mg/kg; conditions: Balb/c mouse, in vivo
[18] = Oral bioavailability, based on dose-normalized AUC values in BALB/c mice; type: ADME, organism-based; conditions: mouse, in vivo

Row | Structure (SMILES) | Reversion [1] | IC50 [2] | EC50 (NIH3T3) | further results
1 | CC(=O)N1Cc2cc(Br)ccc2N(Cc2c[nH]cn2)CC1Cc1ccccc1 (stereo not given) | 30% | 60 nM | 600 nM | –
2 | CS(=O)(=O)N1Cc2cc(-c3cccnc3)ccc2N(Cc2cnc[nH]2)CC1Cc1ccccc1 (stereo not given) | – | 7.9 nM | – | –
3 | N#Cc1ccc2c(c1)CN(S(=O)(=O)c1cccs1)[C@H](Cc1ccccc1)CN2Cc1cnc[nH]1 [BMS-214662] | – | – | – | bioavailability (in vivo [3]): 56%; Cmax [4]: 20 µM; half-life [5]: 2.4 h; clearance [6]: 5.7 mL/min/kg; Vd (in vivo [7]): 1.4 L/kg
4 | CS(=O)(=O)N1Cc2cc(Br)ccc2N(Cc2c[nH]cn2)C[C@H]1CC1CCCCC1 | – | – | – | Reversion [8]: 90%
5 | CC(=O)N1Cc2ccccc2N(Cc2c[nH]cn2)CC1Cc1ccccc1 (stereo not given) | – | 1300 nM | – | –
6 | CS(=O)(=O)N1Cc2cc(-c3ccccc3)ccc2N(Cc2c[nH]cn2)C[C@H]1Cc1cccnc1 | – | 5.95 nM | 15 nM | LCK (Mus musculus [9]): 0.1
7 | N#Cc1ccc2c(c1)CN(S(=O)(=O)c1ccccc1)[C@H](Cc1ccccc1)CN2Cc1cnc[nH]1 | – | 1.77 nM | 10 nM | –
8 | CN(C)S(=O)(=O)N1Cc2cc(C#N)ccc2N(Cc2c[nH]cn2)C[C@H]1Cc1ccccc1 | – | 2.85 nM | 50 nM | LCK (Mus musculus [10]): 0.2
9 | CS(=O)(=O)N1Cc2cc(-c3ccccc3)ccc2N(Cc2c[nH]cn2)CC1Cc1ccccc1 (stereo not given) | 70% | – | 530 nM | –
10 | CS(=O)(=O)N1Cc2cc(Br)ccc2N(Cc2c[nH]cn2)CC1Cc1ccccc1Cl (stereo not given) | 70% | 18 nM | 460 nM | –
11 | CS(=O)(=O)N1Cc2cc(Br)ccc2N(Cc2c[nH]cn2)C[C@H]1Cc1ccccc1 | 70% | – | 290 nM | LCK (Mus musculus [11]): 1.5
12 | CS(=O)(=O)N1Cc2cc(-c3ccncc3)ccc2N(Cc2c[nH]cn2)C[C@H]1Cc1ccccc1 | – | 16 nM | 40 nM | LCK (Mus musculus [12]): 0.2
13 | CS(=O)(=O)N1Cc2cc(Br)ccc2N(Cc2cnc[nH]2)CC1CCc1ccccc1 (stereo not given) | – | 45 nM | – | –
14 | O=C(c1cccc2ccccc12)N1Cc2ccccc2N(Cc2c[nH]cn2)CC1Cc1ccccc1 (stereo not given) | – | 276 nM | – | Reversion [8]: 70%
15 | CN(C)C(=O)N1Cc2cc(C#N)ccc2N(Cc2c[nH]cn2)C[C@H]1Cc1ccccc1 | 40% | 17 nM | – | –
16 | CS(=O)(=O)N1Cc2cc(Br)ccc2N(Cc2c[nH]cn2)CC1Cc1cccc(Cl)c1 (stereo not given) | – | 24 nM | – | Reversion [8]: 70%
17 | CS(=O)(=O)N1Cc2cc(-c3cccnc3)ccc2N(Cc2c[nH]cn2)CC1Cc1ccccc1 (stereo not given) | 10% | – | – | –
18 | CC1CN(Cc2c[nH]cn2)c2ccccc2CN1C(=O)c1cccc2ccccc12 (stereo not given) | – | 1100 nM | – | Reversion [8]: 0%
19 | CS(=O)(=O)N1Cc2cc(-c3ccccc3)ccc2N(Cc2cnc[nH]2)CC1Cc1ccccc1 (stereo not given) | – | 54.5 nM | – | –
20 | CS(=O)(=O)N1Cc2cc(Br)ccc2N(Cc2c[nH]cn2)CC1CCc1ccccc1 (stereo not given) | 70% | – | 400 nM | –

Row | Structure (SMILES) | Reversion [1] | IC50 [2] | EC50 (NIH3T3) | further results
21 | O=C(c1cccc2ccccc12)N1CCN(Cc2c[nH]cn2)c2ccc(Br)cc2C1 | – | – | – | Reversion [13]: 5%
22 | CCOC(=O)N1Cc2cc(C#N)ccc2N(Cc2c[nH]cn2)C[C@H]1Cc1ccccc1 | 50% | 22 nM | 300 nM | –
23 | O=C(c1cccc2ccccc12)N1CCN(Cc2c[nH]cn2)c2ccccc2C1 | – | – | – | Reversion [8]: 0%
24 | CS(=O)(=O)N1Cc2cc(Br)ccc2N(Cc2c[nH]cn2)CC1Cc1ccccc1 (stereo not given) | 80% | – | 270 nM | T/C (Mus musculus [14]): 138%
25 | CC(=O)N1Cc2cc(Br)ccc2N(Cc2c[nH]cn2)CC1Cc1cccc2ccccc12 (stereo not given) | 5% | – | – | –
26 | CCCS(=O)(=O)N1Cc2cc(C#N)ccc2N(Cc2cnc[nH]2)C[C@H]1Cc1ccccc1 | – | 1.77 nM | 10 nM | –
27 | CS(=O)(=O)N1Cc2cc(Br)ccc2N(Cc2cnc[nH]2)CC1CNC(=O)c1ccccc1 (stereo not given) | – | 86 nM | – | –
28 | CS(=O)(=O)N1Cc2cc(-c3ccccc3)ccc2N(Cc2cnc[nH]2)C[C@H]1Cc1ccncc1 | – | 383 nM | – | –
29 | CC(=O)N1Cc2cc(Br)ccc2N(Cc2cnc[nH]2)CC1Cc1cccc2ccccc12 (stereo not given) | – | 54.5 nM | – | –
30 | CS(=O)(=O)N1Cc2cc(Br)ccc2N(Cc2cnc[nH]2)C[C@@H]1Cc1ccccc1 | – | 437 nM | – | –
31 | CC(=O)N1Cc2cc(C#N)ccc2N(Cc2c[nH]cn2)C[C@H]1Cc1ccccc1 | – | 8.75 nM | 100 nM | –
32 | CS(=O)(=O)N1Cc2cc(Br)ccc2N(Cc2c[nH]cn2)CC1CNC(=O)c1ccccc1 (stereo not given) | 0% | – | – | –
33 | CN(C)CCS(=O)(=O)N1Cc2cc(C#N)ccc2N(Cc2c[nH]cn2)C[C@H]1Cc1ccccc1 | – | 1.53 nM | 30 nM | LCK (Mus musculus [15]): 1
34 | COc1ccc(CC2CN(Cc3c[nH]cn3)c3ccc(Br)cc3CN2S(C)(=O)=O)cc1 (stereo not given) | 0% | 101 nM | – | –
35 | CS(=O)(=O)N1Cc2cc(Br)ccc2N(Cc2cnc[nH]2)CC1Cc1ccccc1 (stereo not given) | – | 30 nM | – | –
36 | CS(=O)(=O)N1Cc2cc(Br)ccc2N(Cc2cnc[nH]2)C[C@H]1CC1CCCCC1 | – | 23.5 nM | – | –
37 | CS(=O)(=O)N1Cc2cc(C#N)ccc2N(Cc2c[nH]cn2)C[C@H]1Cc1ccccc1 | – | 3 nM | 13 nM | LCK (Mus musculus [16]): 0.6
38 | CS(=O)(=O)N1Cc2cc(Br)ccc2N(Cc2cnc[nH]2)C[C@H]1Cc1ccccc1 | – | 10.7 nM | – | half-life [17]: 1.2 h; bioavailability [18]: 40%
39 | O=C(c1cccc2ccccc12)N1CCN(Cc2cnc[nH]2)c2ccc(Br)cc2C1 | – | 228 nM | – | –
